ChEMBL document CHEMBL1908105, “UDP-glucuronosyltransferases and clinical drug-drug interactions” (Pharmacol Ther, 2005)
Several values for one entry are separate records, joined by “and”; a condition that tells them apart may be missing. Equal values may be shown once.

What was measured:
[1] = Inhibition of morphine (6-O-glucuronidation) glucuronidation by human UGT enzymes from liver microsomes; parameters: species or system Microsome
[2] = Inhibition of morphine (3-O-glucuronidation) glucuronidation by human UGT enzymes from liver microsomes; parameters: species or system Microsome
[3] = Inhibition of mycophenolic acid (1 mM) glucuronidation by human UGT enzymes from liver microsomes; parameters: species or system Microsome
[4] = Inhibition of mycophenolic acid (0.5 mM) glucuronidation by human kidney microsomes; parameters: species or system Microsome
[5] = Inhibition of AZT glucuronidation by human UGT enzymes from liver microsomes; parameters: species or system Microsome
[6] = Inhibition of codeine glucuronidation by human UGT enzymes from liver microsomes; parameters: species or system Microsome
[7] = Inhibition of morphine glucuronidation by human UGT enzymes from liver microsomes; parameters: species or system Microsome
[8] = molecular target: T1, UDP-glucuronosyltransferase 1A4 (Homo sapiens, UniProt P22310); assay: Drug glucuronidation reaction catalyzed by human recombinant UGT1A4
T1 sequence (P22310 whole entry): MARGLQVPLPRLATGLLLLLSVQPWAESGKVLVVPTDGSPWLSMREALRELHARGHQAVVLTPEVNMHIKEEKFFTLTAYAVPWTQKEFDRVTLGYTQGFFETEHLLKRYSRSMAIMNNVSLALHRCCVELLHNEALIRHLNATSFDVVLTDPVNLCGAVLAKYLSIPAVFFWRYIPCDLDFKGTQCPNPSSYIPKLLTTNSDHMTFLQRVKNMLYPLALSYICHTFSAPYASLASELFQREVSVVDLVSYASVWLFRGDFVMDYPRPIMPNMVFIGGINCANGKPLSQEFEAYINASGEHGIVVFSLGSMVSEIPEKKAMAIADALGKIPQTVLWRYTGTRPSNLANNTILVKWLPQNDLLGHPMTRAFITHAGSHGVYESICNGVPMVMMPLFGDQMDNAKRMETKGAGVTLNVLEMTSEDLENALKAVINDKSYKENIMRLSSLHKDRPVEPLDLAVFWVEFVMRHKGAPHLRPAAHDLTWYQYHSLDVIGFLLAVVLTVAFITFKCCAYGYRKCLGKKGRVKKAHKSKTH

[9] = Inhibition of ciramadol glucuronidation by human UGT enzymes from liver microsomes; parameters: species or system Microsome
[10] = Inhibition of 4-methylumbelliferone glucuronidation by human UGT enzymes from liver microsomes; parameters: species or system Microsome
[11] = molecular target: T2, UDP-glucuronosyltransferase 1A3 (Homo sapiens, UniProt P35503); assay: Drug glucuronidation reaction catalyzed by human recombinant UGT1A3
T2 sequence (P35503 whole entry): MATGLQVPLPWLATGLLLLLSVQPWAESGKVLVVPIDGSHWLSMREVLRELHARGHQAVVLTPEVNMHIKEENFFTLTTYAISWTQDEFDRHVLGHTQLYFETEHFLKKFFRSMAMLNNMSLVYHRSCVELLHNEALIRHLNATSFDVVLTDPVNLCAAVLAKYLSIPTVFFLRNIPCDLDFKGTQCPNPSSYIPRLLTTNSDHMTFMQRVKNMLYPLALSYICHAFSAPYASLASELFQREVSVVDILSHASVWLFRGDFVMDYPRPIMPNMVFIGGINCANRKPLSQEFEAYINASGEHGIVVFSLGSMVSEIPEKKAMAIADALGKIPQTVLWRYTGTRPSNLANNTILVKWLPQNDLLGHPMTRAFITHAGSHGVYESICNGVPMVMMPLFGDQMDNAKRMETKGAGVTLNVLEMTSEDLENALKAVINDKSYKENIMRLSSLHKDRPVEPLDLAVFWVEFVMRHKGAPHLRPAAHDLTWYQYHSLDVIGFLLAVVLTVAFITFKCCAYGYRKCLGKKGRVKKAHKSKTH

UGT2B7 = molecular target: T3, UGT2B7 (Homo sapiens, UniProt P16662); assay: (§1) Drug glucuronidation reaction catalyzed by human recombinant UGT2B7; conditions: recombinant UGT2B7
T3 sequence (P16662 whole entry): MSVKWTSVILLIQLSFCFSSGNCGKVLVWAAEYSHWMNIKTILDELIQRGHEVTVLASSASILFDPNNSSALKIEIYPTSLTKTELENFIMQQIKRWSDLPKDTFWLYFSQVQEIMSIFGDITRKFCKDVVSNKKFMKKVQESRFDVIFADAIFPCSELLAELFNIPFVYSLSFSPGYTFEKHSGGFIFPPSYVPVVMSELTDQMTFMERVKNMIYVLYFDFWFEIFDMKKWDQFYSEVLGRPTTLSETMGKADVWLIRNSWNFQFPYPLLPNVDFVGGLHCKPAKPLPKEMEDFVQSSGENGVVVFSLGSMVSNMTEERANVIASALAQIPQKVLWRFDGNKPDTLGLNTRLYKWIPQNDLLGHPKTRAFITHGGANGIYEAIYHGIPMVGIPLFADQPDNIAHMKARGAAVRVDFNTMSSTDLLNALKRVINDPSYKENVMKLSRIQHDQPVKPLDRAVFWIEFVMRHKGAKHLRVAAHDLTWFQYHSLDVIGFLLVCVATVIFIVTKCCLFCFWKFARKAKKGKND

[12] = molecular target: T4, UDP-glucuronosyltransferase 2B7 (Homo sapiens, UniProt P16662); assay: as §1
T4 sequence (P16662 whole entry): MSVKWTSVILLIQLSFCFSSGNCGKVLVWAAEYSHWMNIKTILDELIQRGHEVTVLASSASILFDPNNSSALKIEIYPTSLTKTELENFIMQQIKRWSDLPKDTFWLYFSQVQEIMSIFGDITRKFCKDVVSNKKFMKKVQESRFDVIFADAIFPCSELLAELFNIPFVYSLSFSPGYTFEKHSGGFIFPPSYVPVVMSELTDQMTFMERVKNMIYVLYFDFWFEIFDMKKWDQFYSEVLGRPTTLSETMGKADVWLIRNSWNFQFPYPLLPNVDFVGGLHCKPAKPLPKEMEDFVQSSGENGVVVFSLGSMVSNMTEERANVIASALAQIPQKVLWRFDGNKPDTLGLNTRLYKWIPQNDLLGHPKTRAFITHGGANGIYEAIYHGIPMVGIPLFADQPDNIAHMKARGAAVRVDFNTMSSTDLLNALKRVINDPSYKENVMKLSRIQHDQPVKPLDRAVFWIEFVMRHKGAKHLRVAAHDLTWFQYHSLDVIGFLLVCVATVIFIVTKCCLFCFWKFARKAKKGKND

[13] = substrate: CCc1c2c(nc3ccc(O)cc13)-c1cc3c(c(=O)n1C2)COC(=O)[C@]3(O)CC; assay: (§2) Drug glucuronidation reaction catalyzed by human recombinant UGT1A6
[14] = substrate: CN1CC[C@]23c4c5ccc(O[C@@H]6O[C@H](C(=O)O)[C@@H](O)[C@H](O)[C@H]6O)c4O[C@H]2[C@@H](O)C=C[C@H]3[C@H]1C5; assay: as §2
[15] = substrate: COc1c(C)c2c(c(O)c1C/C=C(\C)CCC(=O)O)C(=O)OC2; assay: (§3) Drug glucuronidation reaction catalyzed by human recombinant UGT1A7
[16] = substrate: CCc1c2c(nc3ccc(O)cc13)-c1cc3c(c(=O)n1C2)COC(=O)[C@]3(O)CC; assay: as §3

CN(C)CCCN1c2ccccc2CCc2ccc(Cl)cc21 [CLOMIPRAMINE]
Ki [1]: 56 µM | Ki [2]: 90 µM

O=C(O)c1cccnc1Nc1cccc(C(F)(F)F)c1 [NIFLUMIC ACID]
IC50 [3]: 8 µM | IC50 [4]: 8 µM

CNCCC=C1c2ccccc2CCc2ccccc21 [NORTRIPTYLINE]
Ki [1]: 27 µM | Ki [2]: 33 µM

O=C(N[C@H](CO)[C@H](O)c1ccc([N+](=O)[O-])cc1)C(Cl)Cl [CHLORAMPHENICOL]
Ki [5]: 250 µM | Ki [6]: 270 µM | Ki [7]: 980 µM

COc1ccc2c(c1)c(CC(=O)O)c(C)n2C(=O)c1ccc(Cl)cc1 [INDOMETHACIN]
Ki [5]: 200 µM

Nc1ccc(S(=O)(=O)Nc2nccs2)cc1 [SULFATHIAZOLE]
Ki [5]: 24000 µM

CN(C)CCCN1c2ccccc2CCc2ccccc21 [IMIPRAMINE]
Km [8]: 310 µM | Vmax [8]: 180 pmol/min/mg protein

CCCCC1C(=O)N(c2ccccc2)N(c2ccccc2)C1=O [PHENYLBUTAZONE]
Ki [5]: 1400 µM | Ki [6]: 1700 µM

O=C(O)c1cc(-c2ccc(F)cc2F)ccc1O [DIFLUNISAL]
IC50 [3]: 109 µM | IC50 [4]: 122 µM

O=C(O)c1ccccc1Nc1cccc(C(F)(F)F)c1 [FLUFENAMIC ACID]
IC50 [3]: 19 µM | IC50 [4]: 13 µM

O=C1C(CC[S+]([O-])c2ccccc2)C(=O)N(c2ccccc2)N1c1ccccc1 (configuration not stated) [SULFINPYRAZONE]
Ki [5]: 2100 µM

O=C1Nc2ccc(Cl)cc2C(c2ccccc2Cl)=NC1O (configuration not stated) [LORAZEPAM]
Ki [9]: 140 µM | Ki [5]: 160 µM | Ki [7]: 160 µM

COc1ccc2cc([C@H](C)C(=O)O)ccc2c1 [NAPROXEN]
Ki [5]: 172 µM and 1100 µM

C[C@]12CC[C@H]3[C@@H](CCC4=CC(=O)CC[C@@]43C)[C@@H]1CC[C@@H]2O [TESTOSTERONE]
Ki [5]: 250 µM

CN1C(=O)C(O)N=C(c2ccccc2)c2cc(Cl)ccc21 (configuration not stated) [TEMAZEPAM]
Ki [10]: 217 µM | Ki [5]: 580 µM

CN(C)CCC=C1c2ccccc2CCc2ccccc21 [AMITRIPTYLINE]
Ki [1]: 80 µM | Ki [6]: 130 µM | Ki [2]: 160 µM

C=CCN1CC[C@]23c4c5ccc(O)c4O[C@H]2C(=O)CC[C@@]3(O)[C@H]1C5 [NALOXONE]
Ki [7]: 630 µM

CN1CCC(=C2c3ccccc3CC(=O)c3sccc32)CC1 [KETOTIFEN]
Vmax [8]: 130 pmol/min/mg protein and 140 pmol/min/mg protein | Vmax [11]: 6 pmol/min/mg protein and 12 pmol/min/mg protein

CN/C(=N\CCSCc1nc[nH]c1C)NC#N [CIMETIDINE]
Ki [5]: 11000 µM

CC(C(=O)O)c1cccc(Oc2ccccc2)c1 (configuration not stated) [FENOPROFEN]
Ki [10]: 220 µM

C#C[C@]1(O)CC[C@H]2[C@@H]3CCc4cc(O)ccc4[C@H]3CC[C@@]21C [ETHINYL ESTRADIOL]
Ki [5]: 38 µM and 150 µM

Cc1cc(CC(=O)O)n(C)c1C(=O)c1ccc(Cl)cc1 [ZOMEPIRAC]
Ki [5]: 2100 µM

Cc1cccc(Nc2ccccc2C(=O)O)c1C [MEFENAMIC ACID]
IC50 [3]: 63 µM | IC50 [4]: 49 µM

CN1C(=O)CN=C(c2ccccc2F)c2cc([N+](=O)[O-])ccc21 [FLUNITRAZEPAM]
Ki [5]: 190 µM

Cc1cn([C@H]2C[C@H](N=[N+]=[N-])[C@@H](CO)O2)c(=O)[nH]c1=O [ZIDOVUDINE]
Km (UGT2B7): 770 µM | Vmax [12]: 210 pmol/min/mg protein

CCOC(=O)Nc1ccc(NCc2ccc(F)cc2)cc1N [EZOGABINE]
Km [8]: 322 µM

Cc1noc(NS(=O)(=O)c2ccc(N)cc2)c1C [SULFISOXAZOLE]
Ki [5]: 47000 µM

Nc1ccc(S(=O)(=O)c2ccc(N)cc2)cc1 [DAPSONE]
Ki [5]: 1700 µM

CN1C(=O)CN=C(c2ccccc2)c2cc(Cl)ccc21 [DIAZEPAM]
Ki [9]: 40 µM | Ki [5]: 300 µM | Ki [6]: 180 µM | Ki [7]: 120 µM

B1: UDP-glucuronosyltransferase 1A6 (Homo sapiens) (protein)
chain: MACLLRSFQRISAGVFFLALWGMVVGDKLLVVPQDGSHWLSMKDIVEVLSDRGHEIVVVVPEVNLLLKESKYYTRKIYPVPYDQEELKNRYQSFGNNHFAERSFLTAPQTEYRNNMIVIGLYFINCQSLLQDRDTLNFFKESKFDALFTDPALPCGVILAEYLGLPSVYLFRGFPCSLEHTFSRSPDPVSYIPRCYTKFSDHMTFSQRVANFLVNLLEPYLFYCLFSKYEELASAVLKRDVDIITLYQKVSVWLLRYDFVLEYPRPVMPNMVFIGGINCKKRKDLSQEFEAYINASGEHGIVVFSLGSMVSEIPEKKAMAIADALGKIPQTVLWRYTGTRPSNLANNTILVKWLPQNDLLGHPMTRAFITHAGSHGVYESICNGVPMVMMPLFGDQMDNAKRMETKGAGVTLNVLEMTSEDLENALKAVINDKSYKENIMRLSSLHKDRPVEPLDLAVFWVEFVMRHKGAPHLRPAAHDLTWYQYHSLDVIGFLLAVVLTVAFITFKCCAYGYRKCLGKKGRVKKAHKSKTH
Km [13]: 97 µM | Vmax [13]: 2.8e-05 µmol/min/mg | Km [14]: 18000 µM | Vmax [14]: 2.1e-05 µmol/min/mg

B2: UDP-glucuronosyltransferase 1A7 (Homo sapiens) (protein)
chain: MARAGWTGLLPLYVCLLLTCGFAKAGKLLVVPMDGSHWFTMQSVVEKLILRGHEVVVVMPEVSWQLGRSLNCTVKTYSTSYTLEDQDREFMVFADARWTAPLRSAFSLLTSSSNGIFDLFFSNCRSLFNDRKLVEYLKESCFDAVFLDPFDACGLIVAKYFSLPSVVFARGIFCHYLEEGAQCPAPLSYVPRLLLGFSDAMTFKERVWNHIMHLEEHLFCPYFFKNVLEIASEILQTPVTAYDLYSHTSIWLLRTDFVLEYPKPVMPNMIFIGGINCHQGKPVPMEFEAYINASGEHGIVVFSLGSMVSEIPEKKAMAIADALGKIPQTVLWRYTGTRPSNLANNTILVKWLPQNDLLGHPMTRAFITHAGSHGVYESICNGVPMVMMPLFGDQMDNAKRMETKGAGVTLNVLEMTSEDLENALKAVINDKSYKENIMRLSSLHKDRPVEPLDLAVFWVEFVMRHKGAPHLRPAAHDLTWYQYHSLDVIGFLLAVVLTVAFITFKCCAYGYRKCLGKKGRVKKAHKSKTH
Km [15]: 30 µM | Vmax [15]: 0.00037 µmol/min/mg | Km [16]: 5 µM | Vmax [16]: < 1e-06 µmol/min/mg
